Test results as given in ChEMBL document CHEMBL1144518, “1-Methylpyridinium-4-(4-phenylmethanethiosulfonate) iodide, MTS-MPP+, a novel scanning cysteine accessibility method (SCAM) reagent for monoamine transporter studies” (Bioorg Med Chem, 2007).
Calls of active or inactive are those of the source. No cut-off for these calls is given here.

Experiments:
[1] = system: Sodium-dependent serotonin transporter (Homo sapiens), P31645 [C109A]; assay: Activation of inward current at human SERT C109A mutant expressed in Xenopus laevis oocytes; format: cell-based; conditions: Oocyte
[2] = system: Sodium-dependent serotonin transporter (Homo sapiens), P31645 [C109A]; assay: Blockade of leak current of human SERT C109A mutant expressed in Xenopus laevis oocytes assessed as outward current at 30 uM; format: cell-based; conditions: Oocyte
[3] = target: Sodium-dependent serotonin transporter (Homo sapiens, UniProt P31645, C109A); assay: Inhibition of [3H]5-HT uptake at human SERT C109A mutant transfected in HEK cells; format: cell-based, HEK293
[4] = target: Sodium-dependent serotonin transporter (Homo sapiens, UniProt P31645, G498C); assay: Decrease in [3H]5-HT uptake at human SERT G498C mutant transfected in HEK293 cells; format: cell-based

SMILES: C[n+]1ccc(-c2ccc(SS(C)(=O)=O)cc2)cc1
- Activity [1]: inactive
- Activity [2]: Active
- Ki [3]: 1300 µM
- EC50 [4]: 3.98 µM

SMILES: C[N+](C)(C)CCSS(C)(=O)=O
- EC50 [4]: 3.16 µM

SMILES: C[n+]1ccc(-c2ccccc2)cc1
- Ki [3]: 48 µM
